What all share (assay type): functional
For one test, the target named is T1, Protein RecA (Mycobacterium tuberculosis, UniProt P9WHJ3).
T1 sequence (P9WHJ3 whole entry): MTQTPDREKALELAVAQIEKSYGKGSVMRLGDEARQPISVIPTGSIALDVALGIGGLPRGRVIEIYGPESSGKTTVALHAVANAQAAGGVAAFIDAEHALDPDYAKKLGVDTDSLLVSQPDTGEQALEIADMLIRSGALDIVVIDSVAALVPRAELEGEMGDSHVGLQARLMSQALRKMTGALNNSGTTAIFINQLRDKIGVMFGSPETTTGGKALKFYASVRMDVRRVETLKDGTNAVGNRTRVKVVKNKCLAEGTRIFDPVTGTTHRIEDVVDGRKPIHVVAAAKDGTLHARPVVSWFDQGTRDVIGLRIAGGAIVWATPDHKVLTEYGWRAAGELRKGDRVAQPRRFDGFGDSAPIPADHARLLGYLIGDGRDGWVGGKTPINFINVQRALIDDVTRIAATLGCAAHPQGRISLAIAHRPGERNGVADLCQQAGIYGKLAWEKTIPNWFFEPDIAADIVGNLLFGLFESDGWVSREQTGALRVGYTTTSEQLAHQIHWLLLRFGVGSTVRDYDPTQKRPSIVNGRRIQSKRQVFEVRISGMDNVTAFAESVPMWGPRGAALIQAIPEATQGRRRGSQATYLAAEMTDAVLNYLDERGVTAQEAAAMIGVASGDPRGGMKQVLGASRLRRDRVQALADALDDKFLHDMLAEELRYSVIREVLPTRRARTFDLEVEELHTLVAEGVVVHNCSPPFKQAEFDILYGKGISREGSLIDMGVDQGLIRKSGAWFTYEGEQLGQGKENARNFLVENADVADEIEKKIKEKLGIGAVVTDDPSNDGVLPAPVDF
As to the kind of experiment: Fluorescence Cell-Free Homogeneous Dose Retest to Identify Inhibitors of RecA-Intein Splicing Activity. [Related pubchem assays (depositor defined):AID2097, AID2223, AID489010, AID492950].

The target of test [1] is Cyclin-dependent kinase 5 (Homo sapiens, UniProt Q00535).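 Further: CDK5 measured as one member of a kinase profiling panel.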
The next test addresses Activated CDC42 kinase 1 (Homo sapiens, UniProt Q07912). As to the kind of experiment: Navigating the Kinome. Panel member name: ACK1.
Test [2] addresses Fibroblast growth factor receptor 1 (Homo sapiens, UniProt P11362).
For a further test, the target named is T2, Activin receptor type-1 (Homo sapiens, UniProt Q04771).
T2 sequence (Q04771 whole entry): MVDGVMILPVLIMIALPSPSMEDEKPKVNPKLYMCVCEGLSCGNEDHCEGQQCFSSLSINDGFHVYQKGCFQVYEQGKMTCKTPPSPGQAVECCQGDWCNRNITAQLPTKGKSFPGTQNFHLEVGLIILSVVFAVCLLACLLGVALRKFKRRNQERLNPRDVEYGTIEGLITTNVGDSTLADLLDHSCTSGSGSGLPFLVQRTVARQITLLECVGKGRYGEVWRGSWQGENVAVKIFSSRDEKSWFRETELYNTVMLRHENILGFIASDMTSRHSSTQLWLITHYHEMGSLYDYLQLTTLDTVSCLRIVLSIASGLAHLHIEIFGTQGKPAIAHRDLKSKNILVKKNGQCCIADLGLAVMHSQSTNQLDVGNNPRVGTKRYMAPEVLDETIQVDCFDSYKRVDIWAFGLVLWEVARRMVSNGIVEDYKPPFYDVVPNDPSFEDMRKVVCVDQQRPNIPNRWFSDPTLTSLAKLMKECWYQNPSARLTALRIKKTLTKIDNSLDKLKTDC
As to the kind of experiment: Navigating the Kinome. Panel member name: ACVR1.

Test [3] concerns the target Glycogen synthase kinase-3 alpha (Homo sapiens, UniProt P49840).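 Further: GSK3A result taken from a broad kinome-wide kinase panel.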
For test [4], the target named is Serine/threonine-protein kinase PAK 4 (Homo sapiens, UniProt O96013).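 Further: value obtained within a kinome profiling panel in which PAK4 was one of the panel members.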
Test [5] deals with Vascular endothelial growth factor receptor 2 (Homo sapiens, UniProt P35968).
Test [6] deals with BDNF/NT-3 growth factors receptor (Homo sapiens, UniProt Q16620).
Test [7] deals with G protein-coupled receptor kinase 5 (Homo sapiens, UniProt P34947). As to the kind of experiment: Navigating the Kinome. Panel member name: GPRK5.

SMILES strings stand for the structures. Active and inactive are the calls of the source.

Sequence of Fibroblast growth factor receptor 1 (P11362 whole entry): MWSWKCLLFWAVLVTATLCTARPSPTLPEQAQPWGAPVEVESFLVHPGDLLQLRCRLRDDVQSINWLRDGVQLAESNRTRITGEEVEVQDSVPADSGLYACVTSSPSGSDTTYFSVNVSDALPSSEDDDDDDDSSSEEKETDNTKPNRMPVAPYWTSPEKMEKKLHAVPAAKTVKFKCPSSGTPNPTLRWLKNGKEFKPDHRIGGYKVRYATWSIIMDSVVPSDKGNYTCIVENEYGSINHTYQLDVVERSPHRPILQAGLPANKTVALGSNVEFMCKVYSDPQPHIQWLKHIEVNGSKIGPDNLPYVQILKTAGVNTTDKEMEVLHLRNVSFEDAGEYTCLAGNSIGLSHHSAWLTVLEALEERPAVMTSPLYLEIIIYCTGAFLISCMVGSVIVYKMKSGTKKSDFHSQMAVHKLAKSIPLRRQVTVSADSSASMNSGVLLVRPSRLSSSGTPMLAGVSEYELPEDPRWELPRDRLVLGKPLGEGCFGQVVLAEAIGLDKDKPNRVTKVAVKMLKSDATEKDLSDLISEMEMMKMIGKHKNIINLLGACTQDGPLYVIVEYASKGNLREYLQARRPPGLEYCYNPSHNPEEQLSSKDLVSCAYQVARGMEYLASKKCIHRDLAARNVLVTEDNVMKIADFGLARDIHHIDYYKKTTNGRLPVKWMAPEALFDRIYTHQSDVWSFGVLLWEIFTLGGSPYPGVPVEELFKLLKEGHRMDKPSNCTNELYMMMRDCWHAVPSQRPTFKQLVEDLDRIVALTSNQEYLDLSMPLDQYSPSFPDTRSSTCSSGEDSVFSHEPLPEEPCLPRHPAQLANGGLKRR
Sequence of BDNF/NT-3 growth factors receptor (Q16620 whole entry): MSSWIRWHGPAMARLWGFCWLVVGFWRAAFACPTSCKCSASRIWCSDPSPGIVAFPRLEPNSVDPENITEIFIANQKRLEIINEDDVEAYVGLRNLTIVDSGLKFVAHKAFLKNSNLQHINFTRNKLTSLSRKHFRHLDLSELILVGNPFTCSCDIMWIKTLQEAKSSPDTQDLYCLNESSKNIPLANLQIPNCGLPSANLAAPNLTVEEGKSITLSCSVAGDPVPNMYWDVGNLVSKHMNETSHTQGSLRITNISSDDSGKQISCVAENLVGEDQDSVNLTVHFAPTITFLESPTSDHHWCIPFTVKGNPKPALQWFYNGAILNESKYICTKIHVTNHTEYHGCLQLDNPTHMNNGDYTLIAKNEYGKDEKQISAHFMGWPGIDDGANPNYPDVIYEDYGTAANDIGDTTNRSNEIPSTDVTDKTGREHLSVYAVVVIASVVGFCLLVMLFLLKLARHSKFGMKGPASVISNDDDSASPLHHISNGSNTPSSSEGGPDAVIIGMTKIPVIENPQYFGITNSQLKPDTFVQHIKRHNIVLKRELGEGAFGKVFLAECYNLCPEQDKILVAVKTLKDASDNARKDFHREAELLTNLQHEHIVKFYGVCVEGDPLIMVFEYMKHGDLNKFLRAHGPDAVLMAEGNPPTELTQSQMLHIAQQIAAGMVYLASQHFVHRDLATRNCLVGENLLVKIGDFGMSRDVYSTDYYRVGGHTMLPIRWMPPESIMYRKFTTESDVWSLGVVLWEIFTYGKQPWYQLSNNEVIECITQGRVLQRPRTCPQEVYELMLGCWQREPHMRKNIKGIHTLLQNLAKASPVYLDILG
Sequence of Vascular endothelial growth factor receptor 2 (P35968 whole entry): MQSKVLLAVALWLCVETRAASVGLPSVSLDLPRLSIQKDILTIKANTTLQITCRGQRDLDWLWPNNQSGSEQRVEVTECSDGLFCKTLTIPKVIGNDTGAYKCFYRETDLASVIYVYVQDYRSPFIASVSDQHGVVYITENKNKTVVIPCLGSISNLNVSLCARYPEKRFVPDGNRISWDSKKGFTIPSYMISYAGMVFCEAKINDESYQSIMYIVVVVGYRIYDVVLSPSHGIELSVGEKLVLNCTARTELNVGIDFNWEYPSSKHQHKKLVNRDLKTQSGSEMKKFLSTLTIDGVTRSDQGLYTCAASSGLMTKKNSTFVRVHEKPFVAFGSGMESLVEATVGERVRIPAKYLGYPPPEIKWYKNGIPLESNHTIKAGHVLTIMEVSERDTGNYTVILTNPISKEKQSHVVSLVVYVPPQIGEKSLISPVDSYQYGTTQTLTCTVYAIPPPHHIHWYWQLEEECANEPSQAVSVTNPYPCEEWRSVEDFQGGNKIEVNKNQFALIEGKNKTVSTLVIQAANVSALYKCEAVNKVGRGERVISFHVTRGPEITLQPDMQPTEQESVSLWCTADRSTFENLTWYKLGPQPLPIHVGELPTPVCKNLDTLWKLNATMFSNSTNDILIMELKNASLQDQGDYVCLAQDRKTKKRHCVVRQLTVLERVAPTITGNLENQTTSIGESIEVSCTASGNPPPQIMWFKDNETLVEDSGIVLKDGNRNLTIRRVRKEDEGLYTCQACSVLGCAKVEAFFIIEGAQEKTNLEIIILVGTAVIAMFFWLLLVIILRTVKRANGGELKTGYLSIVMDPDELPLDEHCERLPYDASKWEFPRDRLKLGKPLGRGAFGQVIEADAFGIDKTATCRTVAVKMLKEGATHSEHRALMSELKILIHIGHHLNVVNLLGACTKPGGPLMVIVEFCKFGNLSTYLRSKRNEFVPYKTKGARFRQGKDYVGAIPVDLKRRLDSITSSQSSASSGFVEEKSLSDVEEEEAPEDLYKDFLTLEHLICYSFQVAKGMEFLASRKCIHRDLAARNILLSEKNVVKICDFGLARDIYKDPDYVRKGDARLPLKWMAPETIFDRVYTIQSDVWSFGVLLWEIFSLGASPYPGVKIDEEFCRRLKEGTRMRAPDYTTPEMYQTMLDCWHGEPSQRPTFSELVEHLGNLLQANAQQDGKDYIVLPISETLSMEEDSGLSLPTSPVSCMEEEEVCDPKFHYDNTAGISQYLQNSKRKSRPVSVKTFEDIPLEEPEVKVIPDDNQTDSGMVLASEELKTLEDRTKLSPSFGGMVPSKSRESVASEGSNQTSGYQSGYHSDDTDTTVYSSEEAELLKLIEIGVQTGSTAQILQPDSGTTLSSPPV
Sequence of Glycogen synthase kinase-3 alpha (P49840 whole entry): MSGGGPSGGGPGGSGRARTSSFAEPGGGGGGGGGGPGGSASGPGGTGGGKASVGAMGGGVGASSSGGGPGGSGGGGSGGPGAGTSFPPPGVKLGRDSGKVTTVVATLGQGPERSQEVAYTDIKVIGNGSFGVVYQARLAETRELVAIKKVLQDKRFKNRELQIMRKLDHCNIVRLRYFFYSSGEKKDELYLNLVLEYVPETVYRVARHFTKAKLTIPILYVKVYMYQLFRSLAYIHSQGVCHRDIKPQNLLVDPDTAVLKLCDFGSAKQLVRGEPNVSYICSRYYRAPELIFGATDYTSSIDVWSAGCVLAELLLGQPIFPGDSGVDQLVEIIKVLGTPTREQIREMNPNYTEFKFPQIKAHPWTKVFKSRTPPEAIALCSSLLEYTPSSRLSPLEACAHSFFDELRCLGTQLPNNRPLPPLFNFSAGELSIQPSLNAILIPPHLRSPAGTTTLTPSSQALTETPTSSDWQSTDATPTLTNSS
Sequence of Activated CDC42 kinase 1 (Q07912 whole entry): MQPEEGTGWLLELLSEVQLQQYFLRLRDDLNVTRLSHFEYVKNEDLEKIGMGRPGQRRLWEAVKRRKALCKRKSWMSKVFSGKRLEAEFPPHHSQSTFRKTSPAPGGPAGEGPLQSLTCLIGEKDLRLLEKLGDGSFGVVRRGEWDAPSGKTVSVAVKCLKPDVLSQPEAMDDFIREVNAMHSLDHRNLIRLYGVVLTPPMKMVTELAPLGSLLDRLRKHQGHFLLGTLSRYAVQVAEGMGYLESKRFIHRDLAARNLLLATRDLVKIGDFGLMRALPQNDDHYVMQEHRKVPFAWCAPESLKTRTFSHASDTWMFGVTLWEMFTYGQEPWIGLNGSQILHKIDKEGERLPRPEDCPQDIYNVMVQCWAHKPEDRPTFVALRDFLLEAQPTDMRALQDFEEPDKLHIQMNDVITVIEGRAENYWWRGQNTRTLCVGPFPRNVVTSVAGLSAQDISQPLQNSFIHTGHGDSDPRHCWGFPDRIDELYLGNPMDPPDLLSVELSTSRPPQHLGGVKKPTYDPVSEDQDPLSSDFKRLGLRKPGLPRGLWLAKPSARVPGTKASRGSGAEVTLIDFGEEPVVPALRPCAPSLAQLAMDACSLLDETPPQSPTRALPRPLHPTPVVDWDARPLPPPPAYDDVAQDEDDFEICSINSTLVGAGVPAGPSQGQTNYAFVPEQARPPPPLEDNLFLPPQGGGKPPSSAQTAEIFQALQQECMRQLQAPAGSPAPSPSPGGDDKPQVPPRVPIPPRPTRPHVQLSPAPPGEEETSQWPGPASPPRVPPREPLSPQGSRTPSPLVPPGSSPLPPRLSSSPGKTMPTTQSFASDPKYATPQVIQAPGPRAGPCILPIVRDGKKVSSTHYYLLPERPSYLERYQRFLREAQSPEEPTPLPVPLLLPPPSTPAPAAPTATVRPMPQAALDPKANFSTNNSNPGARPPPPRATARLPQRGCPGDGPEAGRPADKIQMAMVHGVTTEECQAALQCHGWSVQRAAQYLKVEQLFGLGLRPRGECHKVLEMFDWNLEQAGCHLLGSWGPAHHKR
Sequence of Cyclin-dependent kinase 5 (Q00535 whole entry): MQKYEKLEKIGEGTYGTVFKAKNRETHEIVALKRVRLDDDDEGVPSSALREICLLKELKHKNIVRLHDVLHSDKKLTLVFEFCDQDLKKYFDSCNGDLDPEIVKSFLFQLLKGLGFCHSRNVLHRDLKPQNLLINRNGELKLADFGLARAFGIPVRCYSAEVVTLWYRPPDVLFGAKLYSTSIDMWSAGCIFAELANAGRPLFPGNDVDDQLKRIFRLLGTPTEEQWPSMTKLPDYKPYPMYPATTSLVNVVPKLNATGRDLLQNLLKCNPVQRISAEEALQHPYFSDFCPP

The EC50 is the concentration needed to bring the measured effect to its halfway point. Take `O=C(Cc1ccccc1)NC1(O)C(=O)c2ccccc2C1=O`: at Protein RecA, the concentration giving a half-maximal response (EC50) is 8.67 µM (active).
By Ki is commonly meant the dissociation constant of the complex between target and ligand, obtained from inhibition or displacement. As for `O=c1[nH]c2cc(Br)cnc2[nH]1`, the Ki was 0.0501 µM (active) in test [1]; 50.1 µM (active) on Activated CDC42 kinase 1; 50.1 µM (active) in test [2]; 25.1 µM (active) at Activin receptor type-1; 63.1 µM (active) in test [3]; 39.8 µM (active) in [4]. The Ki in test [5] was 20 µM (active).
Regarding `O=C(Nc1cccc(C(F)(F)F)n1)Nc1ccnc2cc(OC(F)F)ccc12`, the Ki in test [1] is > 3.16 µM (inactive); on Activated CDC42 kinase 1 it was > 3.98 µM (inactive); in [2] it was > 3.98 µM (inactive); in test [3], 0.0158 µM (active); in test [6], > 3.98 µM (inactive); in [4] it was > 5.01 µM (inactive). For the same compound, the values for the Ki in test [5] and in [7] were > 1.58 µM (inactive) and > 3.98 µM (inactive), respectively.
`O=C(Nc1cccc(C(F)(F)F)n1)Nc1ccnc2cc(Cl)ccc12`: the Ki in test [1] was > 3.16 µM (inactive); at Activated CDC42 kinase 1, > 3.98 µM (inactive); in test [2], > 3.98 µM (inactive); at Activin receptor type-1 it was 1 µM (active); in [3] it was 0.0158 µM (active); in test [6], > 3.98 µM (inactive). The values for the Ki in [4], in test [5] and in test [7] were > 5.01 µM (inactive), > 2.51 µM (inactive) and > 3.98 µM (inactive), respectively.
Turning to `CCC1CC(NS(=O)(=O)C2CC2)CC1c1ncc2cnc3[nH]ccc3n12` (stereo not given), the Ki is > 3.16 µM (inactive) in test [1]; 1.58 µM (active) on Activated CDC42 kinase 1; 1.26 µM (active) in [2]; > 3.98 µM (inactive) on Activin receptor type-1; > 3.98 µM (inactive) in test [3]; > 3.98 µM (inactive) in test [6]. Moreover, the results for the Ki in test [4] and in test [5] were 2.51 µM (active) and 1 µM (active), respectively.
Consider `Cc1cc(C)c(S(=O)(=O)/N=C2\C=C(Nc3ccc(C(=O)O)cc3)C(=O)c3ccccc32)c(C)c1`, for which the EC50 on Protein RecA was 0.0696 µM (active).
On the same count and under the same terms, the result for `COC(=O)c1nc(-c2ccc3c(n2)C(=O)C(=N)C(OC)=C3O)c(N)c(-c2ccc(OC)c(OC)c2O)c1C` reads 0.342 µM (active).

Values taken from ChEMBL document CHEMBL1201862, “PubChem BioAssay data set” (2004).
